Reference: US10005817B2, “Peptide pharmaceuticals” (EUMEDERIS PHARMACEUTICALS, INC., priority 2012, dated 2018)
Entries after “also recorded” stand apart in the source; their conditions may differ. Where two headings read alike, the source gives them in different places. Non-standard residues stand in square brackets, D forms with d. Residues, ends and D or L forms follow the SMILES beside them. *: point of attachment. GlcA(β-D,1-O-dodecyl) = CCCCCCCCCCCCO[C@@H]1O[C@H](C(=O)*)[C@@H](O)[C@H](O)[C@H]1O; GlcA(β1-O-octyl) = CCCCCCCCO[C@@H]1O[C@H](C(=O)*)[C@@H](O)[C@H](O)[C@H]1O; Phe(2,4,6-Me3) = Cc1cc(C)c(C[C@H](N)C(=O)O)c(C)c1; Dmt = Cc1cc(O)cc(C)c1C[C@H](N)C(=O)O; hArg = N=C(N)NCCCC[C@H](N)C(=O)O; Nle = CCCC[C@H](N)C(=O)O; Ac5c = NC1(C(=O)O)CCCC1; Aib = CC(C)(N)C(=O)O

Key:
blood Ca levels in rats = conditions: sc, 320 micrograms per kg (G4), at 5 hrs
Method: Each animal in a group was treated with a single sc injection of either vehicle or test agent.
Blood samples were collected via retro-orbital vein at 0.5, 1, 2, 4, and 5 hrs. post-injection and blood samples were stored on ice prior to centrifugation and testing for blood PO4 and Ca levels.

blood PO4 levels in rats = assay: blood phosphate levels in rats after single s.c. injection; assay type: in vivo, rat
Description: Following the method of Frolik, C.

PTH receptor (PTHR1) = biological target: T1, PTH receptor (PTHR1) (Homo sapiens, UniProt Q03431); assay: PTH1 cellular assay, cAMP, agonist mode (SaOS2 cells, Cerep); assay type: cell-based
T1 construct: Cerep SA
T1 sequence (Q03431 27-593): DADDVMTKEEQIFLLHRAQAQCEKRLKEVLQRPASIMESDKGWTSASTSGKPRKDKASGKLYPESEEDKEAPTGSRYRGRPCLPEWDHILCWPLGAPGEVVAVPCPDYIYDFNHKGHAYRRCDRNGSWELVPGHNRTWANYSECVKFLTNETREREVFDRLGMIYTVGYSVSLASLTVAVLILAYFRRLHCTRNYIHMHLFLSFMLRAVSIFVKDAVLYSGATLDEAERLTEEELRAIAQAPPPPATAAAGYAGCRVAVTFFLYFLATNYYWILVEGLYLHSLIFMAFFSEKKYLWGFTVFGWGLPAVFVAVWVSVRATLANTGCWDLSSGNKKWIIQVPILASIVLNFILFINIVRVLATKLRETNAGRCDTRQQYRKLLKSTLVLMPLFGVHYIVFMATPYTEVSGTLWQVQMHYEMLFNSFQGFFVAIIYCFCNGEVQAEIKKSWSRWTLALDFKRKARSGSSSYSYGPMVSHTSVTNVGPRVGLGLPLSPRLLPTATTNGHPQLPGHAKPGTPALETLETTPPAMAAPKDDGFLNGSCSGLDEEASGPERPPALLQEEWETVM
Method: Compounds were weighed precisely in an amount of approximately 1 mg and assayed in standard cellular assays (cerep SA). The readout is the amount of cAMP generated in the cells treated with the test compounds, in either agonist or antagonist mode.
Compounds were dissolved in water and diluted in assay buffer containing 1% bovine serum albumin.

mu opioid receptor [1] = biological target: T2, mu opioid receptor (Homo sapiens, UniProt P35372); assay: mu opioid receptor cellular assay (MOP), agonist mode, cAMP readout (Cerep); assay type: cell-based
T2 construct: Cerep
T2 sequence (P35372 whole entry): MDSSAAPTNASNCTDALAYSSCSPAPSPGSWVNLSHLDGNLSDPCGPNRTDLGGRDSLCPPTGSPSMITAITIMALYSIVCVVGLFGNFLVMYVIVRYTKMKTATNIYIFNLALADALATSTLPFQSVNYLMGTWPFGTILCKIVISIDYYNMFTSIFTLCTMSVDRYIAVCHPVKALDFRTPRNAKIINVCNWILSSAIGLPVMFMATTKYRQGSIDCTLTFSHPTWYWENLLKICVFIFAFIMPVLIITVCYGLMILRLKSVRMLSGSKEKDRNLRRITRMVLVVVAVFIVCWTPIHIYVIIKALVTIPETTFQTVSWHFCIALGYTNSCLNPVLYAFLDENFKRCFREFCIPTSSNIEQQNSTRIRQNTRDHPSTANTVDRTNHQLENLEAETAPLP
Method: (§1) Compounds were weighed precisely in an amount of approximately 2 mg and assayed in standard cellular assays by the contract research organization Cerep, Inc. (Pullman, Wash.) as executed at their subsidiary, Cerep SA (Le Bois l'Eveque, France). The readout is the amount of cAMP generated in the cells treated with the test compounds, in either agonist or antagonist mode. The assays used were the mu opioid receptor cellular assay (MOP in agonist and antagonist mode), the delta2 opioid receptor cellular assay (DOP in agonist and antagonist mode) and the kappa opioid receptor cellular assay (KOP in agonist and antagonist mode). The assays used are described in Wang, J. B., et al. (1994) FEBS Lett 338: 217-222, Law, P. Y. and Loh, H. H. (1993) Mol Pharmacol 43: 684-693, and Avidor-Reiss, T., et al. (1995) FEBS Lett 361: 70-74. The stimulant for the cells in the DOR antagonist assay was 3×10E-8M DPDPE, a well-accepted DOR literature standard.

mu opioid receptor [2] = biological target: T2, mu opioid receptor; assay: mu opioid receptor cellular assay (MOP), antagonist mode, cAMP readout (Cerep); assay type: cell-based
Method: as §1

[3] = plasma protease stability, incubation in human plasma at 37 degC, LC-MS; assay type: in vitro ADME; conditions: over 8 hrs
db/db mice = assay: db/db mice, blood glucose after s.c. dosing; assay type: in vivo, mouse; conditions: db/db mice, s.c., 250 nmole/kg
Method: The 60 female db/db B6BKS (D) Leprdb/J (strain 000697) mice for this study were approximately 8 to 9 weeks old at arrival (Jackson Laboratory, Bar Harbor, Me.). […] One group of 8 female mice served as the vehicle control and received the vehicle, 0.2% BSA in saline, pH 7.4. One additional group of 8 female mice received the positive control article, liraglutide, at a dose level of 50 nmoles/kg. The test articles, vehicle, and positive control article were administered on Day 1, at approximately 0, 7, and 24 hours during the study via subcutaneous injection at a dose volume of 6 mL/kg.
Clinical observations were conducted at receipt, prior to randomization, and daily from Days 1 to 5. Body weights were measured and recorded at receipt, prior to randomization, and daily from Days 1 to 5. Food consumption was measured and recorded daily from Days 1 to 5. Blood samples for glucose analysis were collected pretest (Day −3) and at 0, 1, 2, 4, 8, 10, 24, 48, 72, and 96 hours following the first dose on Day 1. At study termination all animals were euthanized and the carcasses were discarded without further evaluation.

[4] = in the body; by s.c. injection; cited from earlier work
[5] = in vivo; cited from earlier work

SMILES: CCCCCCCCCCCCO[C@@H]1O[C@H](C(=O)NCCCC[C@H](NC(=O)C(C)(C)NC(=O)[C@H](CCC(N)=O)NC(=O)[C@@H](NC(=O)[C@H](Cc2c[nH]c3ccccc23)NC(=O)[C@H](CCCNC(=N)N)NC(=O)[C@H](C)NC(=O)[C@H](CCCCNC(=N)N)NC(=O)[C@H](CCC(N)=O)NC(=O)[C@H](Cc2c[nH]cn2)NC(=O)[C@H](CCCC)NC(=O)[C@H](CC(C)C)NC(=O)[C@H](CCC(N)=O)NC(=O)[C@@H](NC(=O)[C@H](CCC(=O)O)NC(=O)C(C)(C)NC(=O)[C@@H](NC(=O)C2(N)CCCC2)C(C)C)[C@@H](C)CC)[C@@H](C)CC)C(=O)NC(C)(C)C(N)=O)[C@@H](O)[C@H](O)[C@H]1O [EU-232, Ac5c1-Val2-Aib3-Glu4-Ile5-Gln6-Leu7-Nle8-His9-Gln10-hArg11-Ala12-Arg13-Trp14-Ile15-Gln16-Aib17-Lys(N-epsilon-1′-dodecylbeta-D-glucuronyl)18-Aib19-NH2] (H-[Ac5c]V[Aib]EIQL[Nle]HQ[hArg]ARWIQ[Aib]K(GlcA(β-D,1-O-dodecyl))[Aib]-NH2)
- blood calcium levels (blood Ca levels in rats): no elevation
- time point of maximal statistically significant effect on blood phosphate (blood PO4 levels in rats; sc, last time point in the assay): 5 h
- blood PO4 levels (blood PO4 levels in rats; single sc injection, 80 mcg groups): transient but not statistically significant decrease
- maximal decrease in blood PO4 levels from time 0 hr. level (blood PO4 levels in rats; single sc injection, 5 hr. time point, dose not named in the sentence (320 group)): 25-35%
- Characterization (PTH receptor (PTHR1)): super-agonistic response; also recorded: super-agonistic activity; also recorded: agonist
- EC50 (PTH receptor (PTHR1)): 2.4 nM
- Emax (PTH receptor (PTHR1); SAOS-2, read-out: Maximal response (% PTHrP)): 145%
- Emax (PTH receptor (PTHR1); SAOS-2, read-out: maximal response): 125%

SMILES: CCCCCCCCO[C@@H]1O[C@H](C(=O)NCCCC[C@H](NC(=O)[C@H](Cc2c(C)cc(C)cc2C)NC(=O)[C@@H]2CCCN2C(=O)[C@@H](N)Cc2c(C)cc(O)cc2C)C(N)=O)[C@@H](O)[C@H](O)[C@H]1O [EU-A102, 2′,6′-dimethyl-L-tyrosyl-prolyl-2′,4′,6′-trimethyl-L-phenylalanyl-Nε-(1′-octyl β-D-glucuronyl)-L-lysine amide] (H-[Dmt]P[Phe(2,4,6-Me3)]K(GlcA(β1-O-octyl))-NH2)
- Characterization (MOP) (mu opioid receptor [1]): partial agonist
- EC50 (mu opioid receptor [1]): 100 nM
- IC50 (mu opioid receptor [2]): 100 nM

SMILES: CCCCCCCCCCCCO[C@@H]1O[C@H](C(=O)NCCCC[C@H](NC(=O)[C@H](Cc2c(C)cc(C)cc2C)NC(=O)[C@@H]2CCCN2C(=O)[C@@H](N)Cc2c(C)cc(O)cc2C)C(N)=O)[C@@H](O)[C@H](O)[C@H]1O [EU-A103, Dmt-Pro-Tmp-Lys(C12-glucuronyl)-NH2] (H-[Dmt]P[Phe(2,4,6-Me3)]K(GlcA(β-D,1-O-dodecyl))-NH2)
- Characterization (MOP) (mu opioid receptor [1]): pure antagonist
- IC50 (mu opioid receptor [2]): 86 nM

SMILES: CCCCCCCCCCCCO[C@@H]1O[C@H](C(=O)NCCCC[C@H](NC(=O)[C@@H](NC(=O)[C@H](Cc2ccccc2)NC(=O)[C@H](CCC(=O)O)NC(=O)[C@@H]2CCCCNC(=O)CC[C@H](NC(=O)[C@H](CC(=O)O)NC(=O)[C@H](CC(C)C)NC(=O)[C@H](Cc3ccc(O)cc3)NC(=O)[C@H](CCCCN)NC(=O)[C@H](CO)NC(=O)[C@H](Cc3ccc(O)cc3)NC(=O)[C@H](CC(=O)O)NC(=O)[C@H](CO)NC(=O)[C@@H](NC(=O)[C@H](Cc3ccccc3)NC(=O)[C@@H](NC(=O)CNC(=O)[C@H](CCC(N)=O)NC(=O)C(C)(C)NC(=O)[C@@H](N)Cc3c[nH]cn3)[C@@H](C)O)[C@@H](C)O)C(=O)N[C@@H](CCC(N)=O)C(=O)N[C@@H](C)C(=O)N[C@@H](C)C(=O)N2)[C@@H](C)CC)C(=O)N[C@@H](Cc2c[nH]c3ccccc23)C(=O)N[C@@H](CC(C)C)C(=O)N[C@@H](CC(C)C)C(=O)N[C@@H](CCC(N)=O)C(=O)N[C@H](C(N)=O)[C@@H](C)O)[C@@H](O)[C@H](O)[C@H]1O [EU-A993]
- amount of intact compound versus time in human plasma [3]: essentially no change
- Mean Blood Glucose (db/db mice; 0 hr): 503 mg/dL
- Mean Blood Glucose (db/db mice; 10 hr): 305 mg/dL
- Mean Blood Glucose (db/db mice; 24 hr): 324 mg/dL
- Mean Blood Glucose (db/db mice; 48 hr): 426 mg/dL

SMILES: CC[C@H](C)[C@H](NC(=O)[C@H](CCC(=O)O)NC(=O)[C@H](CO)NC(=O)[C@@H](NC(=O)[C@@H](N)CO)C(C)C)C(=O)N[C@@H](CCC(N)=O)C(=O)N[C@@H](CC(C)C)C(=O)N[C@@H](CCSC)C(=O)N[C@@H](Cc1cnc[nH]1)C(=O)N[C@@H](CC(N)=O)C(=O)N[C@@H](CC(C)C)C(=O)NCC(=O)N[C@@H](CCCCN)C(=O)N[C@@H](Cc1cnc[nH]1)C(=O)N[C@@H](CC(C)C)C(=O)N[C@@H](CC(N)=O)C(=O)N[C@@H](CO)C(=O)N[C@@H](CCSC)C(=O)N[C@@H](CCC(=O)O)C(=O)N[C@@H](CCCN=C(N)N)C(=O)N[C@H](C(=O)N[C@@H](CCC(=O)O)C(=O)N[C@@H](Cc1c[nH]c2ccccc12)C(=O)N[C@@H](CC(C)C)C(=O)N[C@@H](CCCN=C(N)N)C(=O)N[C@@H](CCCCN)C(=O)N[C@@H](CCCCN)C(=O)N[C@@H](CC(C)C)C(=O)N[C@@H](CCC(N)=O)C(=O)N[C@@H](CC(=O)O)C(=O)N[C@H](C(=O)N[C@@H](Cc1cnc[nH]1)C(=O)N[C@@H](CC(N)=O)C(=O)N[C@@H](Cc1ccccc1)C(=O)O)C(C)C)C(C)C [PTH]
- half-life [4]: 30 min

SMILES: CC[C@H](C)[C@H](NC(=O)[C@H](CCC(=O)O)NC(=O)[C@H](CO)NC(=O)[C@@H](NC(=O)[C@@H](N)CO)C(C)C)C(=O)N[C@@H](CCC(N)=O)C(=O)N[C@@H](CC(C)C)C(=O)N[C@@H](CCSC)C(=O)N[C@@H](Cc1cnc[nH]1)C(=O)N[C@@H](CC(N)=O)C(=O)N[C@@H](CC(C)C)C(=O)NCC(=O)N[C@@H](CCCCN)C(=O)N[C@@H](Cc1cnc[nH]1)C(=O)N[C@@H](CC(C)C)C(=O)N[C@@H](CC(N)=O)C(=O)N[C@@H](CO)C(=O)N[C@@H](CCSC)C(=O)N[C@@H](CCC(=O)O)C(=O)N[C@@H](CCCN=C(N)N)C(=O)N[C@H](C(=O)N[C@@H](CCC(=O)O)C(=O)N[C@@H](Cc1c[nH]c2ccccc12)C(=O)N[C@@H](CC(C)C)C(=O)N[C@@H](CCCN=C(N)N)C(=O)N[C@@H](CCCCN)C(=O)N[C@@H](CCCCN)C(=O)N[C@@H](CC(C)C)C(=O)N[C@@H](CCC(N)=O)C(=O)N[C@@H](CC(=O)O)C(=O)N[C@H](C(=O)N[C@@H](Cc1cnc[nH]1)C(=O)N[C@@H](CC(N)=O)C(=O)N[C@@H](Cc1ccccc1)C(=O)O)C(C)C)C(C)C [Teriparatide]
- half life [5]: 19 min
